Measurements published in US10646489B2, “Compositions and methods for increasing energy metabolism” (NuSirt Sciences, Inc., priority 2012, dated 2020).

Experiments:
[1] = tested on: diet-induced obese mouse; experiment: Fasting blood glucose, insulin and HOMAIR in the diet-induced obese mouse; assay type: in vivo; settings: 6 week treatment
Experimental: The interactive effects of icariin, a flavanol with specific PDE5 inhibitory properties, on glycemia and insulin sensitivity were assessed in the diet-induced obese mouse, which can be used as a murine model of type 2 diabetes. Male C57/BL6 mice were placed on standard low-fat chow (control; 10% energy from fat) or high fat (60% energy from fat, Research Diets # D12492, Research Diets, Inc, New Brunswick, N.J.) at six weeks of age to induce insulin resistance. […] The animals were then randomized to the following diets for an additional six weeks, with 10 animals per group: Low fat diet (LFD) control; High fat diet (HFD) control; HFD+leucine (24 g/kg diet, a two-fold increase over control levels)1 HFD+leucine (24 g/kg diet)+icariin (25 mg/kg diet). […] Mice were fasted overnight (˜16 hours) prior to measurement of fasting blood glucose, insulin and glucose tolerance. Glucose tolerance was determined following measurement of fasting glucose via intraperitoneal administration of glucose (1.2 g/kg body weight) followed by blood glucose measurement at 15, 30, 60, 90 and 120 minutes. Post-prandial glucose was measured within one hour of cessation of eating. Insulin tolerance was measured via an insulin tolerance test (ITT). Food was removed 4-6 hours prior to ITT, and baseline blood glucose measured. The mice were then injected intraperitoneally with insulin (1.2 U/kg body weight) and blood glucose was measured 15, 30, 60, 90 and 120 minutes following insulin injection. The homeostasis model assessment of insulin resistance (HOMAIR) was used as a screening index of changes in insulin sensitivity. HOMAIR is calculated via standard formula from fasting plasma insulin and glucose as follows: HOMAIR=[Insulin (uU/mL)×glucose (mM)]/22.5. The plasma glucose and insulin concentrations were measured using the Glucose Assay Kit from Biovision (Milpitas, Calif.) and the Insulin kit from Millipore (Billerica, Mass.), respectively. CRP levels in plasma were determined by ELISA (CRP: Life Diagnostics, West Chester, Pa.).

[2] = tested on: diet-induced obese mouse; experiment: Post-prandial glucose, insulin and HOMAIR in the diet-induced obese mouse; assay type: in vivo; settings: 7 days of treatment, leucine 24 g/kg diet, icariin 25 mg/kg diet
Experimental: The interactive effects of icariin, a flavanol with specific PDE5 inhibitory properties, on glycemia and insulin sensitivity were assessed in the diet-induced obese mouse, which can be used as a murine model of type 2 diabetes. Male C57/BL6 mice were placed on standard low-fat chow (control; 10% energy from fat) or high fat (60% energy from fat, Research Diets # D12492, Research Diets, Inc, New Brunswick, N.J.) at six weeks of age to induce insulin resistance. […], with 10 animals per group: Low fat diet (LFD) control; High fat diet (HFD) control; HFD+leucine (24 g/kg diet, a two-fold increase over control levels)1 HFD+leucine (24 g/kg diet)+icariin (25 mg/kg diet). […] Mice were fasted overnight (˜16 hours) prior to measurement of fasting blood glucose, insulin and glucose tolerance. Glucose tolerance was determined following measurement of fasting glucose via intraperitoneal administration of glucose (1.2 g/kg body weight) followed by blood glucose measurement at 15, 30, 60, 90 and 120 minutes. Post-prandial glucose was measured within one hour of cessation of eating. Insulin tolerance was measured via an insulin tolerance test (ITT). Food was removed 4-6 hours prior to ITT, and baseline blood glucose measured. The mice were then injected intraperitoneally with insulin (1.2 U/kg body weight) and blood glucose was measured 15, 30, 60, 90 and 120 minutes following insulin injection. The homeostasis model assessment of insulin resistance (HOMAIR) was used as a screening index of changes in insulin sensitivity. HOMAIR is calculated via standard formula from fasting plasma insulin and glucose as follows: HOMAIR=[Insulin (uU/mL)×glucose (mM)]/22.5. The plasma glucose and insulin concentrations were measured using the Glucose Assay Kit from Biovision (Milpitas, Calif.) and the Insulin kit from Millipore (Billerica, Mass.), respectively. CRP levels in plasma were determined by ELISA (CRP: Life Diagnostics, West Chester, Pa.).

**Q.** Which results are given for leucine?
**A.** reduction in HOMAIR vs. untreated HFD mice [1]: ~30%; reduction in circulating insulin during fasting vs. untreated HFD mice [1]: ~25%; reduction in fasting glucose vs. untreated HFD mice [1]: ~20%; reduction in post-prandial glucose vs. untreated HFD mice [2]: no independent effect
